Results reported in a melting point compilation (Tetko et al.; mined from patent text by program, amines drawn as free bases though some values may be those of a salt).

Structure (SMILES) | melting point [°C]
O=C(NC1=NCCC1)Nc1ccc(Cl)cc1 | 147 to 150
O=c1cc(C(F)(F)F)[nH]c(=O)n1-c1ccc(Cl)cc1F | 189
COc1cc(COc2nn(-c3ccccc3)cc2/C=C/c2csc(C(C)C)n2)ccc1OCc1nc(-c2ccc(CC(=O)O)cc2)oc1C | 107 to 109
O=C(O)c1cccc2nc3cc(Br)ccc3nc12 | 268 to 269
COc1cc(C2CCCO2)cc(OC)c1OC (configuration not stated) | 102 to 104
O=C(Cl)c1ccc(C(=O)c2ccccc2)cc1 | 92
O=C(O)CCc1cccc(-c2nc(=O)c3ccccc3s2)n1 | 243 to 244
CCc1noc(-c2cn(-c3ccc4c(c3)OCO4)cn2)n1 | 173 to 174
COc1cc2c(c(OC)c1)OC(C(F)(F)F)C(C(=O)O)=C2 (configuration not stated) | 215 to 217
O=C(OCCCCCCCCCCCCCCCCOc1ccc(-c2cccc(F)c2F)cc1)C(CCCCCCO)CCCCCCO | 45.2 to 48.8
COc1ccc(Cl)n2nc(S(=O)(=O)Nc3c(F)cccc3F)nc12 | 190 to 191
NCCc1c2n(c3ccccc13)C(=O)CCC2 | 110 to 111
Cc1oc(-c2ccccc2)nc1C(O)COc1ccc(N)cc1 (configuration not stated) | 139 to 140
COc1ccc(N2C(=O)NC3(CCOCC3)C2=O)cc1 | 253 to 254
O=C(O)CCCCc1ccccc1CNC(=O)C1Cc2ccccc2N1S(=O)(=O)c1ccc(-c2cccc(C(F)(F)F)c2)cc1 (configuration not stated) | 98 to 99
C=CC[C@H](C(N)=O)[C@@H](CC(C)C)C(=O)NC1N=C(c2ccccc2)c2cc(OC)ccc2N(C)C1=O (some centres not stated) | 244 to 255
CC(C)Nc1nccc(C#C[Si](C)(C)C)n1 | 93 to 94
Cc1cc(Nc2ccc(Cl)cc2)nc(-n2ncc3ccccc32)n1 | 167 to 169
Cc1ccc(C2(O)CCCCC2C(c2ccccc2)N(C)C)cc1 (configuration not stated) | 168 to 169
CC(C)(C)ON=C(C(=O)O)c1cccs1 | 106 to 107

Structure (SMILES) | melting point [°C]
COc1ccc2[nH]cc(CCN3CCC(Oc4ccc(F)cc4)CC3)c2c1 | 132 to 134
CC(=O)c1ccc(S(=O)(=O)NCc2cccnc2)cc1 | 143 to 144
Cn1cc(C(=O)CCC(=O)O)nc1-c1ccccc1 | 191 to 192
Cc1cc(-n2cc(-c3ccc(F)cc3F)nc2C)cc2ccc(=O)[nH]c12 | 262 to 265
CCCCCCS(=O)(=O)NC(=O)CCc1cc(OC(C)C)nn1Cc1ccc(Cl)cc1Cl | 103 to 106
OCc1cc(F)nc(F)c1F | 48 to 49
CC(C(=O)O)c1ccc2c(c1)Cc1cccnc1O2 (configuration not stated) | 183 to 184
Cc1cc(C=O)ccc1C(=O)NCc1ccccn1 | 79.5 to 83
CNC(=S)NN=C(CCCCl)c1ccccc1 | 94 to 96
COc1ccn2nc(-c3ccccc3F)c(-c3ccc(=O)n(C)n3)c2c1 | 220 to 222
CCSc1cn(C(C)C(=O)N(C)C)nc1-c1ccccc1 (configuration not stated) | 70 to 72
Nc1ccc(Oc2ccc(Oc3ccc(Oc4ccc(Oc5ccc(N)cc5)cc4)cc3)cc2)cc1 | 170
CSc1ccc(-c2ccc(=O)[nH]c2C)cc1 | 211 to 212
Nc1ccc(O)c(N)c1 | 78
CCc1n[nH]c(=O)c2c(C)ncn12 | 175 to 178
CC1(C)CCC(C)(C)c2cc(-c3cccc(C#CC(=O)O)c3)ccc21 | 164 to 165
CC1NC(=O)NN=C1c1ccc(OCC(=O)NCCN2CCNCC2)c(Cl)c1 (configuration not stated) | 208 to 210
COc1cc2ncnc(N3CCN(C(=O)NCc4cnc(C)cn4)CC3)c2cc1OC | 202 to 204
NC1CCCC(NC(=O)c2ccc(-c3[nH]nc4c3C(=O)c3c(NC(=O)NN5CCOCC5)cccc3-4)s2)C1 (configuration not stated) | > 300
Cc1cc([N+](=O)[O-])cc2c1S(=O)C=N2 (configuration not stated) | > 250

Structure (SMILES) | melting point [°C]
Cc1cc(-c2ccc(F)cc2)n(-c2ccc(S(C)(=O)=O)cc2)c1 | 151 to 154
CCC(C)Nc1ccc2n[nH]c(=O)n2n1 (configuration not stated) | 214 to 216
Cc1csc(Nc2cc3ccccc3cn2)n1 | 212 to 215
CCC(C)(CC(=O)Nc1cccc(OCc2ccc3ccc(F)cc3n2)c1)C(=O)O (configuration not stated) | 179 to 180
Cc1ncc(CSSCc2cnc(C)c(O)c2CN(C)C)c(CN(C)C)c1O | 195 to 201
CCc1cc(C)cc(CC)c1C(C(N)=O)C(N)=O | 184 to 186
CC(C)(C)c1ccc(OCCCCCCN2CCN(c3nccs3)CC2)cc1 | 30 to 32
C[C@H](CSC(=O)c1ccccc1)C(=O)O | 63 to 65
O=C(NCCC(F)=C(F)F)C(=O)NCCC(F)=C(F)F | 139 to 141
CNS(=O)(=O)c1ccccc1Nc1nc(Nc2ccc3c(c2)CCCC(=O)N3CC(=O)O)ncc1Cl | 192 to 195
CCN(CC)c1ccc(S(=O)(=O)N2CCCC2=S)cc1 | 183 to 184
CC(=O)OC1CSC(Br)C(OC(C)=O)C1OC(C)=O (configuration not stated) | 175
CS(=O)(=O)c1ccc(-c2ccccc2C=O)cc1 | 115 to 116
O[C@H]1CC[C@@H](CCN2CCC(=C3c4ccc(F)cc4Sc4ccc(C(F)(F)F)cc43)CC2)CC1 | 147 to 150
CC1(C(=O)NCC(=O)O)CC1(Cl)Cl (configuration not stated) | 139 to 140
Cc1cccc(NC(=O)NC(C(=O)N(CC(=O)OC(C)(C)C)c2ccccc2)c2ccccc2)c1 (racemic) | 178
O=C1Cc2cc3c(cc2CCN1Cc1ccccc1)OCO3 | 141 to 142
CCCc1cnc(NC(=O)C(c2ccccc2)c2ccccc2)o1 | 122

Further lines, results first:

melting point [°C] | Structure (SMILES)
88 | C=C(C)C(=O)OCCC(=O)Oc1ccc(-c2cc(OC(=O)C(=C)C)cc(-c3ccc(OC(=O)CCOC(=O)C(=C)C)cc3)c2)cc1
109 to 110 | COCOc1cc(OCOC)c2c(=S)cc(C)oc2c1
128 to 130 | Cc1ccc2c(Cl)cc(C(=O)NCc3ccc(Cl)cc3)c(O)c2n1
193 | CN(C)CCNS(=O)(=O)c1cccc([N+](=O)[O-])c1C(=O)O
146 to 147 | COc1ccc(C(=Cc2nnnn2C)c2ccc(OC)cc2)cc1
90 to 92 | CC(C)C(NC(=O)c1ccc(C(=O)NCc2ccc(N)cc2)cc1)C(=O)N1CCCC1C(=O)NC(C(=O)C(F)(F)F)C(C)C (mixture of isomers)
78 | Cc1cn(CC(=O)c2ccc(-c3ccc(N4C[C@H](Cn5ccnn5)OC4=O)cc3F)cn2)c(C)n1
244 to 246 | c1ccc(Cn2cc(-c3ncc(-c4ccc5cc(OCc6nnn[nH]6)ccc5c4)o3)c3ccccc32)cc1
108 | Nc1ccc(S(=O)(=O)C(F)(F)F)c2sc3ccccc3c12
124 to 127 | CN1CCN(c2cccc3c2C[C@H](NC(=O)c2ccc(C(=O)N4CCOCC4)cc2)CC3)CC1
220 | COc1cc(-c2oc3ccc(CC(=O)NC(CC(C)C)C(N)=O)cc3c2SC)ccc1O (configuration not stated)
249 to 252 | Cc1ccc(Nc2c(N)cc(C(=O)O)cc2S(N)(=O)=O)cc1
181 to 182 | CCn1nc(OC2COCCC2=O)c(-c2ccc(F)cc2)c1-c1ccc(S(C)(=O)=O)cc1 (configuration not stated)
214 to 215 | Cn1ncc2c1-c1c(Oc3ccc(OCc4ccc5ccccc5n4)cc3)sc(C(=O)O)c1CC2
156 to 157 | COc1ccc(NC(=O)CC23CC4CC(CC(C4)C2)C3)c(C)c1
191 to 195 | COc1ccc(N2C(=O)[C@H]([C@@H](C)O)[C@H]2S(=O)(=O)c2ccccc2)cc1
100 to 102 | Cc1ccn(-c2ccc(C(=O)N3Cc4ccc(CN(C)C)n4Cc4ccccc43)c(Cl)c2)n1
188 to 189 | CCCc1nc2c(N)nc3cc(C)ccc3c2o1
102 to 104 | CCOC(=O)C(C)(C(=O)OCC)c1cccc(C(=O)c2ccccc2)c1[N+](=O)[O-]
231 to 233 | c1cn2c(n1)-c1sccc1-n1cnc(-c3nc(C4CC4)no3)c1C2
279 to 281 | CC(C)n1cc(-c2ccc(C(O)c3ccccc3)cc2)c2c(N)ncnc21 (configuration not stated)
64 | O=[N+]([O-])c1c(OC(F)(F)F)ccc2nc(Cl)sc12

melting point [°C] | Structure (SMILES)
61.7 | C=CCC(C#N)(C#N)Cc1ccc(Br)cc1
128 to 131 | CSc1cc(C)nc(SC)c1NC(=O)CCCCCCCSc1nc2c(C)c(Cl)cc(C(C)C)c2o1
307 to 308 | CCCc1c(C2=NN=C(C)Cc3cc4[nH]c(=O)oc4cc32)sc2ccccc12
155 to 157 | COC(=O)[C@H](Cc1ccc(-c2cn(C)c(=O)n(C)c2=O)cc1)NC(=O)c1c(C)cccc1Cl
155 | Cc1nc2n(c(=O)c1CCO)CCCS2
132 to 134 | CCOC(=O)C(C)(C)Oc1cccc2c1CC(O)C(SC)C2 (configuration not stated)
153 to 160 | OC1c2cc(Cl)ccc2OCC1n1ccnc1 (configuration not stated)
215 to 218 | COC(=O)COc1ccc(C(=O)NC(=O)Nc2ccc(C(N)=S)cc2)cc1
180 to 185 | Nc1nc(N)c(CCNc2ccc(C(=O)N[C@@H](CCC(=O)O)C(=O)O)cc2)c(=O)[nH]1
257 to 259 | O=C(NCc1ccc(Cl)cc1)c1cnc2c(I)cc(CC3CCOCC3)cc2c1O
186 | CN(C)C=Nc1c(I)c(=O)n(Cc2ccccc2)c(=O)n1C
118 to 119 | CCOC(=O)NS(=O)(=O)c1ccc2c(c1)CCO2
53.9 to 55.5 | FC(F)(F)Oc1ccc(C2=CCC3(CC2)OCCO3)cc1
120 to 121 | COc1cc2nccn2c(OC)n1
167 to 170 | CCN1C(=O)NC(Cc2c[nH]c3ccccc23)C1=O (configuration not stated)
75 to 78 | O=C(c1cccc(C(F)(F)F)c1)c1cc2cccc(Br)c2o1
163 to 165 | O=C1CCc2c(Cl)sc(-c3ccncc3)c21
139 to 140 | COCOc1cc(/C=C/S(=O)(=O)NC(=O)OC(C)(C)C)n(Cc2ccc(Cl)cc2Cl)n1
53 to 55 | CCCCCCCCCCCCCCCCCCOc1cc(OCC(=O)OC)cc(C(=O)N(CC(=O)OC)CC(=O)OC)c1
122 | Cc1nc2ccccn2c(=O)c1CCN1CCC(C(=O)c2ccccc2)CC1
180 | Cc1cc(C(=O)NC(=O)NC2CCCCC2)no1
134 to 136 | CCOC(=O)C1=C(C)NC(C)=C(C(=O)OC)C1c1ccccc1Br (configuration not stated)
